pIC50: −log10 of the molar value. Read-outs that look alike come from different tables or passages of the source. Each block holds one molecule with its values, some of them ahead of it.
How the values were obtained:
Assay type in all cases: biochemical
TACE = molecular target: T1, TACE (Homo sapiens, UniProt P78536); assay: TACE inhibition experiment (in vitro)
T1 construct: made in house; host or cells: mammalian cells or insect cells

Human MMP1 = molecular target: T2, Human MMP1 (Homo sapiens, UniProt P03956); assay: MMP1 inhibition experiment; conditions: read-out: IC50 value MMP-1
T2 construct: purchased Calbiochem 444208
T2 sequence (P03956 100-469): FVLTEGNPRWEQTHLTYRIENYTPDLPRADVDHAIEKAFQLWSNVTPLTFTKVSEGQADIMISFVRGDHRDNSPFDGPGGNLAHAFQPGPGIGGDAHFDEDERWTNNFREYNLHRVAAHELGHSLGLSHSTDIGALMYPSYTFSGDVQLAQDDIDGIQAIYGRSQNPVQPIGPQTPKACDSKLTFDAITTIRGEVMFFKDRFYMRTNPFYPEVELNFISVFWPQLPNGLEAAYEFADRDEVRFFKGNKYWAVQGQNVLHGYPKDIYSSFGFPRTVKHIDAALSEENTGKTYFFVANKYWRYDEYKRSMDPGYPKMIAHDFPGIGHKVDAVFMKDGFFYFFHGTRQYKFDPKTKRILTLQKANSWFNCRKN

Human MMP3 = molecular target: T3, Human MMP3 (Homo sapiens, UniProt P08254); assay: MMP3 inhibition experiment; conditions: concentration required for 50% inhibition of enzyme activity; read-out: IC50 value MMP-3
T3 construct: purchased Calbiochem 444217
T3 sequence (P08254 100-272 limits assumed): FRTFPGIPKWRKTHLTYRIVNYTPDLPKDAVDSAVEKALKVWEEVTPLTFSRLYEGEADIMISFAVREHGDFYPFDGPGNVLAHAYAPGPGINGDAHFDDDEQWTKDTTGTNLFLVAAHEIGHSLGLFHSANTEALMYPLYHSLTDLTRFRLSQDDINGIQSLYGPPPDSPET
Description: (§1) MMP inhibition experiment may be carried out using a fluorescent synthetic substrate according to, for example, the methods of Bickett et al. (D. Mark Bickett et al., Anal. Biochem., 1993, 212, 58-64) and Nagase et al. (H. Nagase et al., J. Biol. Chem., 1994, 269, 20952-20957). The methods of inhibition experiments carried out for various MMPs are described below.
Human MMP3 (Calbiochem #444217) in 90 μL (5 ng) prepared in the assay buffer A was added to 90 μL of 20 μM fluorescent substrate NFF-3(MOCAc-Arg-Pro-Lys-Pro-Val-Glu-Nva-Trp-Arg-Lys(Dnp)-NH2, Peptide Institute, Inc., #3168-v) prepared in the assay buffer B, followed by reaction for 5 hours at 37° C.

Human MMP9 = molecular target: T4, Human MMP9 (Homo sapiens, UniProt P14780); assay: MMP9 inhibition experiment; conditions: read-out: IC50 value MMP-9
T4 construct: purchased Calbiochem 444231
T4 sequence (P14780 107-707 limits assumed): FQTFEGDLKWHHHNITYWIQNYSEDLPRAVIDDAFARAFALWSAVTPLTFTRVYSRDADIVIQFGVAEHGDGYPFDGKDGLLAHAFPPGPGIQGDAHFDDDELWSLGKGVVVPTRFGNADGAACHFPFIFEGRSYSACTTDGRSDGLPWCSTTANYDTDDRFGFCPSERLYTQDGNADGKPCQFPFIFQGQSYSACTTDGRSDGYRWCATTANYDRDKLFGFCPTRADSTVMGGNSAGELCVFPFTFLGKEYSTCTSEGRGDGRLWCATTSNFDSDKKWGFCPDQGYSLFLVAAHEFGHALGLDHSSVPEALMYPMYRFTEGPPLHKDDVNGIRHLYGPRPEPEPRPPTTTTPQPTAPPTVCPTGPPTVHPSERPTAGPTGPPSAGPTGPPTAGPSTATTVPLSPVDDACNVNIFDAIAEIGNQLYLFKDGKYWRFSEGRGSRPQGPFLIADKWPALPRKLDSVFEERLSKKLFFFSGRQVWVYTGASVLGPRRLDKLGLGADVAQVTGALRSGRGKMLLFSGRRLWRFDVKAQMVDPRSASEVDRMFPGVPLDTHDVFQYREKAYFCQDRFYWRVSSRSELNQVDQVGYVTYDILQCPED

Human MMP13 = molecular target: T5, Human MMP13 (Homo sapiens, UniProt P45452); assay: MMP13 inhibition experiment
T5 construct: purchased Chemicon CC068

Human MMP14 = molecular target: T6, Human MMP14 (Homo sapiens, UniProt P50281); assay: MMP14 inhibition experiment; conditions: concentration required for 50% inhibition of enzyme activity; read-out: IC50 value MMP-14
T6 construct: purchased Biogenesis or Calbiochem 5980-1461 or 475935
Description: as §1
Human MMP14 (Biogenesis #5980-1461 or Calbiochem #475935) in amount of 90 μL (4 ng) prepared in the assay buffer A was added to 90 μL of 20 μM fluorescent substrate (Dnp-Pro-Cha-Gly-Cys(Me)-His-Ala-Lys(Nma)-NH2) prepared in the assay buffer B, followed by reaction for 5 hours at 37° C.

Human MMP17 = molecular target: T7, Human MMP17 (Homo sapiens, UniProt Q9ULZ9); assay: MMP17 inhibition test; conditions: concentration required for 50% inhibition of enzyme activity; read-out: IC50 value MMP-17
T7 construct: purchased Calbiochem 475940
T7 sequence (Q9ULZ9 126-300 limits assumed): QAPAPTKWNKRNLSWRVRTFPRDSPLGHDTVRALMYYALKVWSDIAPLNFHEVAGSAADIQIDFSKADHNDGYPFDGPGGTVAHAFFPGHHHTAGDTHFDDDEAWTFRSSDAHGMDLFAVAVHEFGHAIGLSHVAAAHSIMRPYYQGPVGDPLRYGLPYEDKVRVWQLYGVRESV

[1] = concentration required for 50% inhibition of enzyme activity
[2] = concentration required for 50% inhibition of enzyme activity, read-out: IC50 value MMP-13

T1 sequence (P78536 215-824): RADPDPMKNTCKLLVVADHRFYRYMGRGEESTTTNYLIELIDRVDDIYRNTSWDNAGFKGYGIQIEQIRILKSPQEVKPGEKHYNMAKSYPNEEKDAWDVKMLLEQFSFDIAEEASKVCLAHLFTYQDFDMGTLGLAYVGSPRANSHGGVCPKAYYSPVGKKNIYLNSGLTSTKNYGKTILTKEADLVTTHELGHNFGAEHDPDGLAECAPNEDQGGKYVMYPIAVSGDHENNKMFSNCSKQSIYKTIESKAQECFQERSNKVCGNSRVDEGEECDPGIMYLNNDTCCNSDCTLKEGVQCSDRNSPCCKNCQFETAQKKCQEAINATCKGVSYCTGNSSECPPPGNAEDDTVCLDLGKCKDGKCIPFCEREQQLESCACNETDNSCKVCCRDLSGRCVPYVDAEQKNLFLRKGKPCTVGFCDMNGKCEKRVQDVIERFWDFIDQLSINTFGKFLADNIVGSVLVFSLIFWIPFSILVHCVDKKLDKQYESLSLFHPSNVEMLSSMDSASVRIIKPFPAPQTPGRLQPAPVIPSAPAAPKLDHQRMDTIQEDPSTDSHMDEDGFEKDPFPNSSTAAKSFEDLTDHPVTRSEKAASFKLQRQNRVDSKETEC

pIC50 (TACE): 7.46
pIC50 (Human MMP1): 7.35
pIC50 (Human MMP3): 7.52
pIC50 (Human MMP9): 7.52
pIC50 (Human MMP13; IC50 value MMP-13, concentration required for 50% inhibition of enzyme activity): 8.00
pIC50 (Human MMP14): 7.15
pIC50 (Human MMP17): 7.89
Structure (SMILES): CC[C@H](C)[C@H](NC(=O)[C@H](CC(C)C)[C@H](C(C)C)N(O)C=O)C(=O)Nc1ccccn1 [compound 3, (2R,3S)-3-(formylhydroxyamino)-2-(2-methyl-1-propyl)-4-methylpentanoic acid [(1S,2S)-2-methyl-1-(pyridin-2-ylcarbamoyl)-1-butyl]amide, reference compound]

pIC50 (TACE): 8.40
Structure (SMILES): Cc1cccc(C(CS(=O)(=O)c2ccc(OCc3cc(C)nc4ccccc34)cc2)N(O)C=O)n1 (centres unmarked) [Example I-135]

pIC50 (TACE; [1]): 8.30
pIC50 (Human MMP1; [1]): 5.52
pIC50 (Human MMP3): 7.40
pIC50 (Human MMP9; [1]): 7.70
pIC50 (Human MMP13; [2]): 8.40
pIC50 (Human MMP14): 7.00
pIC50 (Human MMP17): 7.68
Structure (SMILES): C[C@@H]1O[C@@H](CO)CN(S(=O)(=O)c2ccc(OCc3ccc(F)cc3)cc2)[C@H]1C(=O)NO [compound 2, reference compound]

pIC50 (TACE): 5.68
Structure (SMILES): Cc1cc(C)cc(COc2ccc(S(=O)(=O)CC(CC3CCC4(CC3)OCCO4)N(O)C=O)cc2)c1 (centres unmarked) [Example I-90]

pIC50 (Human MMP1): 4.10
pIC50 (Human MMP3): 5.30
pIC50 (Human MMP9): 4.35
pIC50 (Human MMP13; [2]): 4.82
pIC50 (Human MMP14): 4.30
pIC50 (Human MMP17): 5.52
Structure (SMILES): Cc1cc(COc2ccc(S(=O)(=O)CC(C=C3CCC(=NO)CC3)N(O)C=O)cc2)c2ccccc2n1 (centres unmarked) [Example I-6, N-Hydroxy-N-[1-(4-hydroxyiminocyclohexylidenemethyl)-2-{4-(2-methylquinolin-4-ylmethoxy)benzenesulfonyl}ethyl]formamide]

pIC50 (TACE): 7.82
Structure (SMILES): CCC(CC)CN1CCC(=CC(CS(=O)(=O)c2ccc(OCc3cc(C)nc4ccc(C)cc34)cc2)N(O)C=O)CC1 (centres unmarked) [Example I-174]

pIC50 (TACE; [1]): 8.00
pIC50 (Human MMP1; [1]): 4.70
pIC50 (Human MMP3): 7.10
pIC50 (Human MMP9; [1]): 5.00
pIC50 (Human MMP13; [2]): 6.70
pIC50 (Human MMP14): 5.10
pIC50 (Human MMP17): 7.70
Structure (SMILES): Cc1cc(COc2ccc(S(=O)(=O)N3CCSC(C)(C)[C@@H]3C(=O)NO)cc2)cc(C)n1 [compound 1, reference compound]

pIC50 (TACE): 7.22
pIC50 (Human MMP1): < 4.00
pIC50 (Human MMP3): 5.30
pIC50 (Human MMP9): 4.40
pIC50 (Human MMP13; [2]): 5.60
pIC50 (Human MMP14): 4.37
pIC50 (Human MMP17): 5.70
Structure (SMILES): C=C1CCC(C(CS(=O)(=O)c2ccc(OCc3cc(C)nc(C)c3)cc2)N(O)C=O)CC1 (centres unmarked) [Example I-4, N-[2-{4-(2,6-dimethylpyridin-4-ylmethoxy)benzenesulfonyl}-1-(4-methylenecyclohexyl)ethyl]-N-hydroxyformamide]

pIC50 (TACE): 7.30
Structure (SMILES): CCC(CC)CN1CCCC(C(CS(=O)(=O)c2ccc(OCc3cc(C)nc4ccccc34)cc2)N(O)C=O)C1 (centres unmarked) [Example I-160]

pIC50 (Human MMP1): 4.52
pIC50 (Human MMP14): 4.64
Structure (SMILES): Cc1cc(COc2ccc(S(=O)(=O)CC(C3CCC(=NO)CC3)N(O)C=O)cc2)c2ccccc2n1 (centres unmarked) [Example I-14]

pIC50 (TACE): 7.51
Structure (SMILES): Cc1cc(COc2ccc(S(=O)(=O)CC(C3CCCN(CC(C)C)C3)N(O)C=O)cc2)c2ccccc2n1 (centres unmarked) [Example I-154]

pIC50 (TACE): 8.48
Structure (SMILES): CCC(CC)C(=O)N1CC/C(=C\C(CS(=O)(=O)c2ccc(OCc3cc(C)nc4ccccc34)cc2)N(O)C=O)C(C)(C)C1 (centres unmarked) [Example I-141]

pIC50 (TACE): 5.24
Structure (SMILES): O=CN(O)C(CC1CCC2(CC1)OCCO2)CS(=O)(=O)c1ccc(OCc2ccc3ccccc3n2)cc1 (centres unmarked) [Example I-87]

pIC50 (TACE): 6.09
Structure (SMILES): O=CN(O)C(CC1CCC(=O)CC1)CS(=O)(=O)c1ccc(OCc2ccc3ccccc3n2)cc1 (centres unmarked) [Example I-89]

pIC50 (TACE): 7.89
Structure (SMILES): Cc1cc(COc2ccc(S(=O)(=O)CC(CC3CCCN(C(=O)OC(C)(C)C)C3)N(O)C=O)cc2)c2ccccc2n1 (centres unmarked) [Example I-157]

pIC50 (TACE): 7.89
Structure (SMILES): Cc1cc(COc2ccc(S(=O)(=O)CC(CC3=CCN(C(=O)OC(C)(C)C)CC3(C)C)N(O)C=O)cc2)c2ccccc2n1 (centres unmarked) [Example I-152]

pIC50 (TACE): 6.12
Structure (SMILES): O=CN(O)C(CC1CCC(=NO)CC1)CS(=O)(=O)c1ccc(OCc2ccc3ccccc3n2)cc1 (centres unmarked) [Example I-88]

pIC50 (TACE): 7.48
Structure (SMILES): CCN1CCCC(C(CS(=O)(=O)c2ccc(OCc3cc(C)nc4ccccc34)cc2)N(O)C=O)C1 (centres unmarked) [Example I-153]

pIC50 (TACE): 6.44
Structure (SMILES): COCc1cc(COc2ccc(S(=O)(=O)CC(CC3CCC4(CC3)OCCO4)N(O)C=O)cc2)cc(C)n1 (centres unmarked) [Example I-121]

pIC50 (TACE): 7.89
Structure (SMILES): Cc1ccc2nc(C)cc(COc3ccc(S(=O)(=O)CC([C@@H]4CSC(=O)N4C)N(O)C=O)cc3)c2c1 (some centres unmarked) [Example I-148]

pIC50 (TACE): 7.74
Structure (SMILES): Cc1cc(COc2ccc(S(=O)(=O)CC(/C=C3\CCN(CC(C)C)CC3(C)C)N(O)C=O)cc2)c2ccccc2n1 (centres unmarked) [Example I-142]

pIC50 (TACE): 7.96
Structure (SMILES): CCC(CC)C(=O)N1CCC(CC(CS(=O)(=O)c2ccc(OCc3cc(C)nc4ccc(C)cc34)cc2)N(O)C=O)CC1 (centres unmarked) [Example I-175]

pIC50 (TACE): 8.14
Structure (SMILES): Cc1cc(COc2ccc(S(=O)(=O)CC(CCC3(C)CCOCC3)N(O)C=O)cc2)c2ccccc2n1 (centres unmarked) [Example I-144]

pIC50 (TACE): 8.37
Structure (SMILES): Cc1ccc2nc(C)cc(COc3ccc(S(=O)(=O)CC(c4ccc(C)nc4)N(O)C=O)cc3)c2c1 (centres unmarked) [Example I-147]

pIC50 (TACE): 8.48
Structure (SMILES): Cc1cc(COc2ccc(S(=O)(=O)CC(/C=C/C3(C)CCOCC3)N(O)C=O)cc2)c2ccccc2n1 (centres unmarked) [Example I-143]

pIC50 (TACE): 7.36
Structure (SMILES): Cc1cc(COc2ccc(S(=O)(=O)CC(N(O)C=O)C3(C)CCN(C(=O)OC(C)(C)C)CC3)cc2)c2ccccc2n1 (centres unmarked) [Example I-161]

pIC50 (TACE): 8.30
Structure (SMILES): CCC(CC)C(=O)N1CCC(=CC(CS(=O)(=O)c2ccc(OCc3cc(C)nc4ccc(C)cc34)cc2)N(O)C=O)CC1 (centres unmarked) [Example I-173]

pIC50 (Human MMP1): 4.30
pIC50 (Human MMP3): 5.22
pIC50 (Human MMP13; [2]): 5.14
pIC50 (Human MMP14): 4.40
pIC50 (Human MMP17): 5.70
Structure (SMILES): C=C1CCC(C(CS(=O)(=O)c2ccc(OCc3cc(C)nc4ccccc34)cc2)N(O)C=O)CC1 (centres unmarked) [Example I-1, N-hydroxy-N-[1-(4-methylenecyclohexyl)-2-{4-(2-methylquinolin-4-ylmethoxy)benzenesulfonyl}ethyl]formamide]

pIC50 (TACE): 8.03
Structure (SMILES): Cc1cc(COc2ccc(S(=O)(=O)CC(CCC3=CCCC(O)C3)N(O)C=O)cc2)c2ccccc2n1 (centres unmarked) [Example I-146]

pIC50 (TACE): 8.09
Structure (SMILES): CCC(CC)C(=O)N1CCCC(=CC(CS(=O)(=O)c2ccc(OCc3cc(C)nc4ccccc34)cc2)N(O)C=O)CC1 (centres unmarked) [Example I-139]

pIC50 (TACE): 8.55
Structure (SMILES): Cc1cc(COc2ccc(S(=O)(=O)CC(C=C3CCCN(S(C)(=O)=O)CC3)N(O)C=O)cc2)c2ccccc2n1 (centres unmarked) [Example I-138]

pIC50 (TACE): 7.59
Structure (SMILES): CCN1CCCC(CC(CS(=O)(=O)c2ccc(OCc3cc(C)nc4ccccc34)cc2)N(O)C=O)C1 (centres unmarked) [Example I-158]

pIC50 (TACE): 6.57
Structure (SMILES): Cc1cc(COc2ccc(S(=O)(=O)CC(CCc3ccccc3C)N(O)C=O)cc2)c2ccccc2n1 (centres unmarked) [Example I-40]

pIC50 (TACE): 8.09
Structure (SMILES): Cc1cc(COc2ccc(S(=O)(=O)CC(C=C3CCCN(CC(C)C)CC3)N(O)C=O)cc2)c2ccccc2n1 (centres unmarked) [Example I-140]

pIC50 (TACE): 6.54
Structure (SMILES): COCc1cc(COc2ccc(S(=O)(=O)CC(CC3CCC(=O)CC3)N(O)C=O)cc2)cc(C)n1 (centres unmarked) [Example I-123]

pIC50 (TACE): 7.48
Structure (SMILES): CCN1CCC(C(CS(=O)(=O)c2ccc(OCc3cc(C)nc4ccccc34)cc2)N(O)C=O)CC1 (centres unmarked) [Example I-156]

pIC50 (TACE): 6.68
Structure (SMILES): COc1ccc(CCC(CS(=O)(=O)c2ccc(OCc3cc(C)nc4ccccc34)cc2)N(O)C=O)c(C)c1C (centres unmarked) [Example I-145]

Source: patent publication US7511144B2, “Reverse hydroxamic acid derivatives” (Kaken Pharmaceutical Co., Ltd., priority 2001, dated 2009)
